Experimental findings from US20250205344A1, “2,4-DIOXOTETRAHYDROPYRIMIDINYL DERATIVES AS DEGRONS IN PROTACS” (GLAXOSMITHKLINE INTELLECTUAL PROPERTY DEVELOPMENT LIMITED, priority 2022, published 2025) are described below.

Where a name gives a salt, the structure may show the parent alone.

This experiment deals with T1, Androgen Receptor (Homo sapiens, UniProt P10275, T878A).
T1 construct: the AR gene was modified, using CRISPR/Cas9 editing, so the expressed AR protein included an 11 amino acid HiBiT tag; endogenous in cells; host or cells: clonal LnCaP-derived line, AR gene edited by CRISPR/Cas9
T1 sequence (P10275 whole entry T878A): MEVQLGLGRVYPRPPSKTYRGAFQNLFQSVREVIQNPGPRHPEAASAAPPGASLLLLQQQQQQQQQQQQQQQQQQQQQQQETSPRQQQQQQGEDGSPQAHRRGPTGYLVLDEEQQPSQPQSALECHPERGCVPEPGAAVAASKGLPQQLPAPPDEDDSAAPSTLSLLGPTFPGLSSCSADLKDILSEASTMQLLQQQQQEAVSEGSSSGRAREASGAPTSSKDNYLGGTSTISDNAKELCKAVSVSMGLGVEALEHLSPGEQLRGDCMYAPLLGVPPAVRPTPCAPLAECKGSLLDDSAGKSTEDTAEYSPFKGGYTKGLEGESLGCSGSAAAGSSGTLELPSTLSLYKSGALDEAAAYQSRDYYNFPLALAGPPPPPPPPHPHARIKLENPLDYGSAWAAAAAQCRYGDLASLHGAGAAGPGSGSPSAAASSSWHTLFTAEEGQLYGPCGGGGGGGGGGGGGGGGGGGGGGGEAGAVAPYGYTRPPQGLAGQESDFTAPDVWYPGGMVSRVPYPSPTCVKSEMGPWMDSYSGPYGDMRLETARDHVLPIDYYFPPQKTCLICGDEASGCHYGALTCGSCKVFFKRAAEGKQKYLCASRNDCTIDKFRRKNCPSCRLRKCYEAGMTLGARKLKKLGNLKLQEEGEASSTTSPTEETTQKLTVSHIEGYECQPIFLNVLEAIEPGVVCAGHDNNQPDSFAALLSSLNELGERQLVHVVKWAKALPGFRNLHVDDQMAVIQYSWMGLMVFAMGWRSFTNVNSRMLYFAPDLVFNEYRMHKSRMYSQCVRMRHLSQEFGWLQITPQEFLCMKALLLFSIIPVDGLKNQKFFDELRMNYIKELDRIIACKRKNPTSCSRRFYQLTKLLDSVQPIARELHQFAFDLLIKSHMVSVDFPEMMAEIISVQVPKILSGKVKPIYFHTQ
T1 sequence (Q96SW2 whole entry partner): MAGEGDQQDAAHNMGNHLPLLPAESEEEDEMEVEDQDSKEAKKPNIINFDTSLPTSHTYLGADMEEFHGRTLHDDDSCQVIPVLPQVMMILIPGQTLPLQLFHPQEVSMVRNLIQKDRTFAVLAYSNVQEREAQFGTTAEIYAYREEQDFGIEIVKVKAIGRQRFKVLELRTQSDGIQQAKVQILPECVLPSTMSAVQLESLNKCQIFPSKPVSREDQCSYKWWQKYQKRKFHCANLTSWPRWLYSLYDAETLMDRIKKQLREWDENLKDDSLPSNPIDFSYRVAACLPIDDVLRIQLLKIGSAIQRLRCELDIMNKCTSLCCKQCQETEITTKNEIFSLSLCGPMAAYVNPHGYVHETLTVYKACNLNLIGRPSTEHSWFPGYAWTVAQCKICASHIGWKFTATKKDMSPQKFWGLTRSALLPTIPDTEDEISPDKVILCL
T1 sequence (Q16531 whole entry partner): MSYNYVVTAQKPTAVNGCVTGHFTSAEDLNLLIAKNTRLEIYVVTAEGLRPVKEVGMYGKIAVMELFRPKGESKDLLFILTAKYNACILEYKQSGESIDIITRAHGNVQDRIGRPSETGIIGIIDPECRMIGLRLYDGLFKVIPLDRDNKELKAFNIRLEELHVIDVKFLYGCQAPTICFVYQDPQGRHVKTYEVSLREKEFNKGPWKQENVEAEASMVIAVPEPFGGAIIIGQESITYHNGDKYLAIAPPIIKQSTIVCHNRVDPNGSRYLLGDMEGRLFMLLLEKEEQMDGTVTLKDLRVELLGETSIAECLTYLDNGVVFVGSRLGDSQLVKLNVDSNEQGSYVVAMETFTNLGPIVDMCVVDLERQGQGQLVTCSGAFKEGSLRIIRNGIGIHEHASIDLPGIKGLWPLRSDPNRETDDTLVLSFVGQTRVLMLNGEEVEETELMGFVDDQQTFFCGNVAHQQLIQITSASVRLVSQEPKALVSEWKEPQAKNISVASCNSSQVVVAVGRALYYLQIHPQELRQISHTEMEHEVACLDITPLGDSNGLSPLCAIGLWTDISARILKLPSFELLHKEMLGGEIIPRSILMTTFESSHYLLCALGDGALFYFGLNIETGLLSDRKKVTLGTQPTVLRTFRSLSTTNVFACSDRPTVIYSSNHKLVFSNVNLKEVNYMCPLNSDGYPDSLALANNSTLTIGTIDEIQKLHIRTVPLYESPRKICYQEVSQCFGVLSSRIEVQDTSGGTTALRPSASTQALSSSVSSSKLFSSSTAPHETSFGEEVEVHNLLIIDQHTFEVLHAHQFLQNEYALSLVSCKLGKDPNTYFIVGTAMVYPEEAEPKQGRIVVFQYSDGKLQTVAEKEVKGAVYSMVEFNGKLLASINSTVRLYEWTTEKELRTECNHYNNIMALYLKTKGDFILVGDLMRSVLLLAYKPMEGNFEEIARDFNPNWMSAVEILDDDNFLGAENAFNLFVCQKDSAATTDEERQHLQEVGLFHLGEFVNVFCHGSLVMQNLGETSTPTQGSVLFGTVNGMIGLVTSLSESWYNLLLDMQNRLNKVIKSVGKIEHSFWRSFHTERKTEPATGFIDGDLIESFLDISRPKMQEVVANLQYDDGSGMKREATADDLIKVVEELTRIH
The experiment can be described thus: Androgen Receptor Degradation Assay (Nano-Glo HiBiT). In kind it is cell-based. Particulars: LNCaP, 18 h, HiBiT-tagged AR in human LnCaP cells, read-out: mean asymptote max. Here is the method: Degradation of Androgen Receptor protein in human LnCaP cells treated with PROTACs was quantified using the Nano-Glo® HiBiT Lytic Detection System (Promega) in 384 well assay plate format. A clonal LnCaP derived cell line was first established in which the AR gene was modified, using CRISPR/Cas9 editing, so the expressed AR protein included an 11 amino acid HiBiT tag at its amino-terminus. 10 mM DMSO stock solutions of PROTACs were prepared and diluted across an 11 concentration, 3 fold increment range, and 25 nL dispensed into a white opaque bottomed 384 well assay plate (Thermofisher) using an acoustic ECHO dispenser (Labcyte). […] For the assay, cells were detached from flask and resuspended with assay medium (FluoroBrite™ DMEM supplemented with 10% heat inactivated FBS, penicillin 50 U/mL and streptomycin 50 ug/mL (Thermofisher)). The cell suspension was centrifuged at 400 g for 5 min and the pellet resuspended in assay medium. 25 μL of cell suspension containing 10,000 cells was dispensed into each well of the assay plate containing the test compounds, which was then incubated for 18 h at 37° C./5% CO2. Control wells were included on each assay plate, with assay medium without cells being the no AR remaining 100% effect control, and cells treated with DMSO vehicle only, without PROTAC, the 0% effect control. 25 μL of Nano-Glo® HiBiT lysis buffer supplemented with LgBiT protein and Nano-Glo® substrate (Promega) was added to each well and the plate shaken at 500 rpm for 10 min at room temperature. The intensity of luminescence was measured using a PHERAstar microplate reader (BMG Labtech) and the % AR protein remaining in each well calculated by normalising the raw luminescence value to the above control wells. Parameters corresponding to the potency and efficacy estimates of the PROTACs were obtained from these normalised luminescence values using software (IDBS ActivityBase). These included the DC50 and the Dmax estimates. Two versions of the DC50, called relative DC50 and absolute DC50, were typically generated. These are the inflection point of a fitted 4 parameter sigmoidal response curve and the interpolated concentration of PROTAC corresponding to 50% of the protein being degraded, respectively. The Dmax parameter was the maximum experimentally observed degradation and the asymptote max parameter the fitted response curve asymptote maximum.
A general note: The HiBiT peptide binds its large partner to form an active luciferase.
For the compound `CN(CCCCCN1CCC(n2ncc3c(N4CCC(=O)NC4=O)cccc32)CC1)c1ccc(C(=O)N[C@H]2CC[C@H](Oc3ccc(C#N)c(Cl)c3)CC2)nn1` [EAR220, N-((1r,4r)-4-(3-chloro-4-cyanophenoxy)cyclohexyl)-6-((5-(4-(4-(2,4-dioxotetrahydropyrimidin-1(2H)-yl)-1H-indazol-1-yl)piperidin-1-yl)pentyl)(methyl)amino)pyridazine-3-carboxamide], the Dmax was at least 50%.
Turning to `CC(C1CCN(c2ccc(C(=O)N[C@H]3CC[C@H](Oc4ccc(C#N)c(Cl)c4)CC3)nn2)CC1)N1CCC(n2ccc3c(N4CCC(=O)NC4=O)cncc32)CC1` (some centres unmarked) [EAR135, N-((1r,4r)-4-(3-Chloro-4-cyanophenoxy)cyclohexyl)-6-(4-(1-(4-(4-(2,4-dioxotetrahydropyrimidin-1(2H)-yl)-1H-pyrrolo[2,3-c]pyridin-1-yl)piperidin-1-yl)ethyl)piperidin-1-yl)pyridazine-3-carboxamide], the Dmax was at least 50%.
Then `N#Cc1ccc(O[C@H]2CC[C@H](NC(=O)c3ccc(N4CCC(CN5CCC(n6ccc7c(N8CCC(=O)NC8=O)cc(Cl)cc76)CC5)CC4)nn3)CC2)cc1Cl` [EAR32, 6-(4-((4-(6-Chloro-4-(2,4-dioxotetrahydropyrimidin-1(2H)-yl)-1H-indol-1-yl)piperidin-1-yl)methyl)piperidin-1-yl)-N-((1r,4r)-4-(3-chloro-4-cyanophenoxy)cyclohexyl)pyridazine-3-carboxamide hydrochloride], with at least 50%.
Then `N#Cc1ccc(O[C@H]2CC[C@H](NC(=O)c3ccc(N4C[C@@H]5[C@H](CN6CCC(n7ncc8c(N9CCC(=O)NC9=O)cccc87)CC6)[C@@H]5C4)nn3)CC2)cc1Cl` [EAR235, N-((1r,4R)-4-(3-chloro-4-cyanophenoxy)cyclohexyl)-6-((1R,5S,6R)-6-((4-(4-(2,4-dioxotetrahydropyrimidin-1(2H)-yl)-1H-indazol-1-yl)piperidin-1-yl)methyl)-3-azabicyclo[3.1.0]hexan-3-yl)pyridazine-3-carboxamide], with at least 50%; and `CC1(C)[C@H](NC(=O)c2ccc(N3CCC(CN4CCC(n5ccc6c(N7CCC(=O)NC7=O)nccc65)CC4)CC3)nc2)C(C)(C)[C@H]1Oc1cnc(C#N)c(Cl)c1` [EAR259, N-((1r,3r)-3-((5-Chloro-6-cyanopyridin-3-yl)oxy)-2,2,4,4-tetramethylcyclobutyl)-6-(4-((4-(4-(2,4-dioxotetrahydropyrimidin-1(2H)-yl)-1H-pyrrolo[3,2-c]pyridin-1-yl)piperidin-1-yl)methyl)piperidin-1-yl)nicotinamide], with at least 50%.
Then `N#Cc1ccc(O[C@H]2CC[C@H](NC(=O)c3ccc(N4CCC(CN5CC6(CC(n7ccc8c(N9CCC(=O)NC9=O)cccc87)C6)C5)CC4)nn3)CC2)cc1Cl` [EAR173, N-((1r,4r)-4-(3-Chloro-4-cyanophenoxy)cyclohexyl)-6-(4-((6-(4-(2,4-dioxotetrahydropyrimidin-1(2H)-yl)-1H-indol-1-yl)-2-azaspiro[3.3]heptan-2-yl)methyl)piperidin-1-yl)pyridazine-3-carboxamide], with at least 50%.
For `N#Cc1ccc(O[C@H]2CC[C@H](NC(=O)c3cnc(N4CCC(CN5CCC(n6ccc7c(N8CCC(=O)NC8=O)cncc76)CC5)CC4)cn3)CC2)cc1C(F)(F)F` [AR15, N-((1r,4r)-4-(4-Cyano-3-(trifluoromethyl)phenoxy)cyclohexyl)-5-(4-((4-(4-(2,4-dioxotetrahydropyrimidin-1(2H)-yl)-1H-pyrrolo[2,3-c]pyridin-1-yl)piperidin-1-yl)methyl)piperidin-1-yl)pyrazine-2-carboxamide], the Dmax is at least 50%.
Regarding `N#Cc1ccc(O[C@H]2CC[C@H](NC(=O)c3ccc(N4CCC(CN5CCC(n6ccc7c(N8CCC(=O)NC8=O)cc(F)cc76)CC5)CC4)nn3)CC2)cc1Cl` [EAR31, N-((1r,4r)-4-(3-Chloro-4-cyanophenoxy)cyclohexyl)-6-(4-((4-(4-(2,4-dioxotetrahydropyrimidin-1(2H)-yl)-6-fluoro-1H-indol-1-yl)piperidin-1-yl)methyl)piperidin-1-yl)pyridazine-3-carboxamide hydrochloride], the Dmax was at least 50%.
For the compound `N#Cc1ccc(O[C@H]2CC[C@H](NC(=O)c3ccc(N4CCC(CN5CCC(n6ccc7c(N8CCC(=O)NC8=O)cccc76)CC5)CC4)c(F)c3)CC2)cc1Cl` [EAR206, N-((1r,4r)-4-(3-Chloro-4-cyanophenoxy)cyclohexyl)-4-(4-((4-(4-(2,4-dioxotetrahydropyrimidin-1(2H)-yl)-1H-indol-1-yl)piperidin-1-yl)methyl)piperidin-1-yl)-3-fluorobenzamide], the Dmax was at least 50%.
As to `N#Cc1ccc(O[C@H]2CC[C@H](NC(=O)c3ccc4c(c3)CCN(C(=O)CN3CCC(n5ccc6c(N7CCC(=O)NC7=O)cccc65)CC3)C4)CC2)cc1Cl` [AR5, N-((1r,4r)-4-(3-Chloro-4-cyanophenoxy)cyclohexyl)-2-(2-(4-(4-(2,4-dioxotetrahydropyrimidin-1(2H)-yl)-1H-indol-1-yl)piperidin-1-yl)acetyl)-1,2,3,4-tetrahydroisoquinoline-6-carboxamide], the Dmax was at least 50%.
Regarding `N#Cc1ccc(O[C@H]2CC[C@H](NC(=O)c3ccc(N4CC[C@@H](CN5CCC(n6ncc7c(N8CCC(=O)NC8=O)cccc76)CC5)C4)nn3)CC2)cc1Cl` [EAR239, N-((1r,4R)-4-(3-chloro-4-cyanophenoxy)cyclohexyl)-6-((S)-3-((4-(4-(2,4-dioxotetrahydropyrimidin-1(2H)-yl)-1H-indazol-1-yl)piperidin-1-yl)methyl)pyrrolidin-1-yl)pyridazine-3-carboxamide], the Dmax was at least 50%.
For `N#Cc1ccc(O[C@H]2CC[C@H](NC(=O)c3ccc(N4CCC(CN5CC[C@@H](n6ccc7c(N8CCC(=O)NC8=O)cccc76)[C@H](F)C5)CC4)nn3)CC2)cc1Cl` [EAR144, N-((1r,4r)-4-(3-Chloro-4-cyanophenoxy)cyclohexyl)-6-(4-(((3R,4R)-4-(4-(2,4-dioxotetrahydropyrimidin-1(2H)-yl)-1H-indol-1-yl)-3-fluoropiperidin-1-yl)methyl)piperidin-1-yl)pyridazine-3-carboxamide, hydrochloride], the Dmax was at least 50%.
In the case of `N#Cc1ccc(O[C@H]2CC[C@H](NC(=O)c3cnc(N4CCC(CN5CCC(n6ccc7c(N8CCC(=O)NC8=O)cccc76)CC5)CC4)cn3)CC2)cc1C(F)(F)F` [EAR22, N-((1r,4r)-4-(4-Cyano-3-(trifluoromethyl)phenoxy)cyclohexyl)-5-(4-((4-(4-(2,4-dioxotetrahydropyrimidin-1(2H)-yl)-1H-indol-1-yl)piperidin-1-yl)methyl)piperidin-1-yl)pyrazine-2-carboxamide hydrochloride], the Dmax was at least 50%.
Regarding `N#Cc1ccc(O[C@H]2CC[C@H](NC(=O)c3cccc(C4CCN(C(=O)CN5CCC(n6ccc7c(N8CCC(=O)NC8=O)cccc76)CC5)CC4)c3)CC2)cc1Cl` [AR3, N-((1r,4r)-4-(3-Chloro-4-cyanophenoxy)cyclohexyl)-3-(1-(2-(4-(4-(2,4-dioxotetrahydropyrimidin-1(2H)-yl)-1H-indol-1-yl)piperidin-1-yl)acetyl)piperidin-4-yl)benzamide], the Dmax is at least 50%.
With `N#Cc1ccc(O[C@H]2CC[C@H](NC(=O)c3ccc(N4CCN(CC(=O)N5CCC(n6ccc7c(N8CCC(=O)NC8=O)cccc76)CC5)CC4)nn3)CC2)cc1Cl` [EAR134, N-((1r,4r)-4-(3-Chloro-4-cyanophenoxy)cyclohexyl)-6-(4-(2-(4-(4-(2,4-dioxotetrahydropyrimidin-1(2H)-yl)-1H-indol-1-yl)piperidin-1-yl)-2-oxoethyl)piperazin-1-yl)pyridazine-3-carboxamide], the Dmax was at least 50%.
With `C[C@@H]1CN(C(=O)Nc2cnc(N3CCC(CN4CCC(n5ccc6c(N7CCC(=O)NC7=O)cccc65)CC4)CC3)nc2)[C@@H](C)CN1c1ccc(C#N)c(Cl)c1` [EAR116, (2S,5R)-4-(3-Chloro-4-cyanophenyl)-N-(2-(4-((4-(4-(2,4-dioxotetrahydropyrimidin-1(2H)-yl)-1H-indol-1-yl)piperidin-1-yl)methyl)piperidin-1-yl)pyrimidin-5-yl)-2,5-dimethylpiperazine-1-carboxamide], the Dmax was at least 50%.
For the compound `N#Cc1ccc(O[C@H]2CC[C@H](NC(=O)c3cnc(N4CCC(C(=O)N5CCC(n6ccc7c(N8CCC(=O)NC8=O)cccc76)CC5)CC4)nc3)CC2)cc1C(F)(F)F` [EAR68, N-((1r,4r)-4-(4-Cyano-3-(trifluoromethyl)phenoxy)cyclohexyl)-2-(4-(4-(4-(2,4-dioxotetrahydropyrimidin-1(2H)-yl)-1H-indol-1-yl)piperidine-1-carbonyl)piperidin-1-yl)pyrimidine-5-carboxamide], the Dmax is at least 50%.
